Paper PMC12561670, “Isolation of Dual-Active Drugs with Anticancer and Antibacterial Activities That Target Both Tubulin and FtsZ” (Antibiotics, 2025)
Values after ≈ are worked out from the molar mass of the structure shown.

Assays:
FtsZ protein = molecular target: T1, FtsZ protein (Staphylococcus aureus, UniProt P0A031); test: Affinity assay by SPR technology; format: binding, S. aureus
T1 construct: His tag; made in house; host or cells: E. coli BL21(DE3)
Experimental: FtsZ Pre-Enrichment: FtsZ purified protein was dissolved in deionized water and prepared into a 1 g/L protein stock solution. Afterwards, protein concentration was diluted to 50 mg/L, respectively, using four different pH acetate buffer solutions (pH 4.0, 4.5, 5.0, 5.5). Subsequently, samples were injected, and the response values of protein FtsZ under different pH conditions were detected using the Biacore pre-enrichment system to determine the optimal protein coupling conditions.
FtsZ Coupling: Before coupling, the CM5 chip was first activated by EDC/NHS solution for 7 min; then, protein coupling was carried out, with a coupling time of 10 min and a protein flow rate of 10 μL/min; finally, the unreacted active sites on the chip were blocked by ethanolamine for 7 min.
The compounds were dissolved in DMSO, and then diluted to 50 μM with PBS (final concentration of DMSO was 5%). The mobile phase was a PBS solution containing 5% DMSO. The response value of the samples flowing through the surface of the FtsZ protein was analyzed by the Biacore T200 system. The monomer compounds with a higher response value to FtsZ (higher than or equal to the positive control) were screened as candidate compounds.
The concentration of candidate compounds was diluted by gradient with a double ratio, with concentration ranging from 0 to 64 μM (the final concentration of DMSO was 5%). Then, the binding response value was obtained. Kinetic curves were drawn according to the dose–effect relationship between the response value and the concentration of candidate compounds, and the binding specificity of candidate compounds and FtsZ was determined according to the curve fitting. Thus, small molecular monomers that can bind specifically to the FtsZ protein were found.

S. aureus BNCC336423 = test: Time–killing curve; format: cell-based; details: S. aureus BNCC336423, concentrations of 4× the MIC or greater
Experimental: S. aureus BNCC336423 was employed for the time–killing curve study. […] Meanwhile, DMSO with an equivalent volume was added to the vehicle control tube. The cultures were then subjected to shaking incubation at 37 °C. Subsequently, cultures were taken out at predetermined time intervals (0, 1, 2, 4, 6, 8, and 24 h), centrifuged at 16,000×g for 3 min, and diluted to an appropriate multiple. These diluted samples were then plated onto Tryptic Soy Agar (TSA) plates for enumeration. Following a 24 h incubation period at 37 °C, colonies on the TSA plates were counted for the CFU/mL, thereby providing insights into the time-dependent bactericidal activity of the tested compounds.

E. Coli BL21 (DE3) = test: Visualization of Z-ring in bacterial cells (GFP-tagged FtsZ); format: cell-based; details: 64 μM, 4 h
Experimental: The assay was carried out using a strain of E.coli BL21 (DE3) containing an IPTG-inducible plasmid, which can produce the green fluorescence protein (GFP)-tagged FtsZ to make the Z-ring visible. An overnight culture of E.coli was replated into 1 mL fresh MHB medium and incubated at 37 °C. Until OD600 = 0.3, 40 μM IPTG (Isopropyl β-D-1-thiogalactopyranoside) was added. […] After that, they were centrifuged and re-suspended in PBS, and then observed using the Leica SP-5 laser scanning confocal microscopy. Z-ring analysis was performed by employing LAS-AF-Lite software 2.6.0.

A549 = test: Anticancer activity IC50; format: cell-based; details: Homo sapiens, abstract only
E. coli = test: In vivo antibacterial activity, mouse peritoneal infection; set-up: species or system CD-1 male mice
Text: SPF grade CD-1 male mice weighing 30 ± 3 g were purchased from Shanghai Slake Experimental Animal Co., Ltd. (Shanghai, China). […] Immediately following this, the mice were intraperitoneally injected with the test compounds. Each experimental group consisted of five mice, with each compound being tested at two distinct concentration gradients (determined based on the minimum inhibitory concentration, MIC). A separate group received physiological saline as a negative control. The subsequent assessment focused on evaluating the therapeutic potential of these drugs against bacterial infections. On the first and third days post-administration, 2 mL of sterile physiological saline was injected into the peritoneal cavity of each mouse. After a gentle two-minute dilution under sterile conditions, the abdominal fluid was extracted for bacterial enumeration using the plate counting method. Furthermore, the clinical manifestations of each mouse group, encompassing mental status, appetite, and other relevant parameters, were meticulously observed over a seven-day period. On the seventh day, the mice were euthanized, and a thorough macroscopic examination was conducted to assess the pathological changes in various vital organs.

S. aureus (ATCC 6538) = test: MIC, broth microdilution; format: cell-based; details: Staphylococcus aureus, ATCC6538; broth microdilution, 18 h, 37 °C; read-out: MIC S. aureus (ATCC 6538)
B. subtilis (CICC 21164) = test: MIC, broth microdilution; format: cell-based; details: Bacillus subtilis; broth microdilution, 18 h, 37 °C; read-out: MIC B. subtilis (CICC 21164)
Experimental: MIC assays were carried out by employing the broth microdilution method in accordance with Clinical and Laboratory Standards Institute (CLSI) guidelines. E. coli BNCC337004, S. aureus BNCC336423, P. aeruginosa BNCC337099, and B. subtilis CICC 21164 were applied for the MIC detection. Mueller–Hinton broth (MHB) was used in bacterial culture, and log-phase bacteria were diluted into a 0.5 McFarland Standard suspension, which was then diluted 1000 times again. Subsequently, 100 μL of the obtained bacterial suspension was placed into each well of 96-well microtiter plates, along with 2-fold serial dilutions of compounds (512, 256, 128, 64, 32, 16, 8, 4, 2, 1, 0.5, 0 μM). The microtiter plates were incubated aerobically for 18 h at 37 °C. The MIC was defined as the lowest drug concentration at which no visible turbidity was observed. All experiments are conducted in three parallel.

T1 sequence (P0A031 whole entry): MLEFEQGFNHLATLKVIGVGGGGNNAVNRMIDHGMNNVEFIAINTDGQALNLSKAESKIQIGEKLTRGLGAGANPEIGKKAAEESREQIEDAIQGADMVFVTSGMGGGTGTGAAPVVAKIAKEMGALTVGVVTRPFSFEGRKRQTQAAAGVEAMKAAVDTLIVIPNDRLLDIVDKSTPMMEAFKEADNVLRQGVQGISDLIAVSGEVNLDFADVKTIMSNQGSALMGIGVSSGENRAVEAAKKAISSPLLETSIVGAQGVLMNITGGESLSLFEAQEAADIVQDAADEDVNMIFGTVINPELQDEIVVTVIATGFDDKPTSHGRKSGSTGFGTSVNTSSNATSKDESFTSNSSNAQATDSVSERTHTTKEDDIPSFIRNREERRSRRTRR

SMILES: CC(C)(C)c1[nH]cnc1/C=c1\[nH]c(=O)/c(=C/c2ccccc2)[nH]c1=O [Compound 23, Plinabulin]
- Kd (FtsZ protein): 15.3 µM
- Chi^2 (FtsZ protein; SPR fit): 0.234
- Rmax (FtsZ protein; SPR, CM5 chip): 11.82 RU
- logs of kill in time–kill (S. aureus BNCC336423): 3 logs
- Z-ring assembly (E. Coli BL21 (DE3)): disturbed the Z-ring assembly
- IC50 (A549): 0.012 µM
- bacterial count of peritoneal fluid (E. coli; mice i.p. E. coli, i.p. compound, days 1 and 3): substantially mitigated
- clinical presentation of infected mice (E. coli; seven-day observation): exhibited vitality, maintained a healthy appetite
- MIC (S. aureus (ATCC 6538)): 8 µM (≈ 2.69 µg/mL)
- MIC (B. subtilis (CICC 21164)): 8 µM (≈ 2.69 µg/mL)
